Test results as given in US10045978B2 (AB SCIENCE, priority 2010, dated 2018).

System: patients with indolent forms of mastocytosis with handicap, D816V absent in at least one infiltrated organ
Test: Example 1 phase 2a study, response assessment
Assay type: in vivo, human
Design: Hamilton rating Δ Mean ± SD / QLQ-C30 Symptom Δ Mean ± SD / QLQ-C30 Global Health Δ Mean ± SD / AFIRMM Δ Mean ± SD / Hamilton rating ΔMean ± SD / QLQC30 Symptom ΔMean ± SD / QLQC30 Global Health ΔMean ± SD / AFIRMM ΔMean ± SD: scale not given here
Method: Eligible patients were aged >18 years, had previously documented indolent systemic, smoldering systemic or cutaneous mastocytosis as per the WHO classification with associated disability as the result of mast cell released mediators and had not responded to usual symptomatic treatments for more the 6 months. […] A single occurrence of this criterion was deemed sufficient for inclusion and so no systematic examination of multiple organs was carried out specifically for this study.
Patients were classified as having a handicap if after appropriate symptomatic treatments they fulfilled at least one of the following a priori criteria: number of flushes/day ≥1; pruritus score ≥6; number of stools ≥4/day; micturition frequency ≥8/day; Hamilton rating for depression ≥10; or EORTC quality-of-life questionnaire (QLQ-C30) symptom score, functional score, and global health status of >0. Patients were excluded if they experienced inadequate organ function defined via blood test levels, or an Eastern Cooperative Oncology Group performance status >2. Other exclusion criteria included: life expectancy <6 months, severe or uncontrolled medical disease, and patients who were pregnant or nursing.
In accordance to the AFIRMM study (Hermine O, et al., 2008, PLoS ONE. 3:e2266), evaluation of treatment response was based upon the change of clinical symptoms associated with a patient's handicaps at week 12 (W12) relative to baseline. Primary endpoints were daily frequency of flushes; pruritus score; and Hamilton rating for depression, as well as, daily stool and micturition frequencies; QLQ-C30 global health status, functional, and symptom scores. […] For those patients entering the extension phase, assessments were performed every 4 weeks for the first 3 months of extension, and every 12 weeks thereafter. Secondary endpoints included the W12 assessment of AFIRMM score (a validated questionnaire assessing the self-perceived severity of mastocytosis) (Hermine O, et al., 2008, PLoS ONE. 3:e2266); overall patient assessment (OPA) score; tryptase levels; and change in organ mast cell infiltration. Determination of D816V mutation and serum tryptase levels was conducted following procedures described previously (Hermine O, et al., 2008, PLoS ONE. 3:e2266). Overall clinical response analysis at W12 defined a responder as having an improvement of ≥50% in baseline handicap of a key response endpoint (Hamilton rating, flushes, or pruritus) without deterioration or emergence of handicap. Any patient with deterioration of ≥50% in any handicap, and/or with emergence of a new handicap with an increase of ≥50% from baseline was considered as worsening. Any patient who discontinued the study before W12 was considered a non responder. Discrimination between dose regimens was investigated by analyses of the ‘time to first response’, according to the initial dosage, and ‘dose at time of first response’ in key response endpoints.
Response analysis was performed on subgroups of the ITT population according to a patient's handicap at baseline and for whom response was evaluated at W12; referred to hereafter as the handicap-related population. No data imputation was implemented. The per protocol (PP) population was defined as a subset of a given handicap-related population, which in addition had presented no major protocol deviations. Summary response data are presented using descriptive statistics with mean improvement compared to baseline in each handicap cohort, regardless of disease classification. The appropriate Wilcoxon or Fisher tests were used for group comparison of baseline disease, demographic characteristics between dose level groups and response relative to baseline. Subpopulation analysis was also conducted according to initial c-Kit status.

[1] = W12, Group 1 (no confirmed D816V)
[2] = W12, Group 2 (mixed c-Kit status)
[3] = W12, handicap-related population

With `Cc1ccc(NC(=O)c2ccc(CN3CCN(C)CC3)cc2)cc1Nc1nc(-c2cccnc2)cs1` [masitinib, 4-(4-methylpiperazin-1-ylmethyl)-N-[4-methyl-3-(4-pyridin-3ylthiazol-2-ylamino)phenyl]benzamide] the “skin mast cell infiltration: good partial response (≥50% reduction)” value (1/14 evaluable patients) was 7%, the “OPA: worsening of health status” value (1/20 patient at one time point) was 5% and the “skin mast cell infiltration: partial response (1 to 49% reduction)” value (6/14 evaluable patients) was 43%. For the same compound, the “skin mast cell infiltration: no change” value (7/14 evaluable patients) was 50%, the “OPA score improvement of at least one point” value (9/20 patients) was 45% and the “first response events at lower dose level of 4.5 mg/kg/day” value (48/79 events) was 60%. The “first response events occurring at dose ≤6 mg/kg/day” value (76/79 events) was 96%, the “first response events: AFIRMM score” value (Total, all doses) was 10 and the “first response events: Flush” value (Total, all doses) was 17. The “first response events: Hamilton” value (Total, all doses) was 10, the “first response events: Micturition” value (Total, all doses) was 1 and the “first response events: OPA score” value (Total, all doses) was 7. The “first response events: Pruritus” value (Total, all doses) was 11, the “first response events: QLQ30 Functional” value (Total, all doses) was 5 and the “first response events: QLQ30 Global” value (Total, all doses) was 6. The “first response events: QLQ30 Symptom” value (Total, all doses) was 5, the “first response events: Stool” value (Total, all doses) was 7 and the “first response events: Total events” value (Total, all doses) was 79. For the same compound, the “QLQ-C30 functional score improvement” value (W12) was 39%±81, the “QLQ-C30 global health status improvement” value (W12) was 51%±108 and the “QLQ-C30 symptom score improvement” value (W12) was 2.5%±69. For the same compound, the “clinical response rate: Hamilton rating” value (W12) was 50%, the “clinical response rate: flushes” value (W12) was 60% and the “clinical response rate: pruritus” value (W12) was 25%. The “OPA: impaired health status at baseline reporting none or minimal impairment” value (W12, 3/20 evaluable patients) was 15%, the “AFIRMM Δ Mean ± SD” value (W12, All) was −61.5 ± 49.6 and the “Flushes per day Δ Mean ± SD” value (W12, All) was −1.7 ± 1.5. For the same compound, the “Hamilton rating Δ Mean ± SD” value (W12, All) was −5.1 ± 4.4, the “Micturitions per day Δ Mean ± SD” value (W12, All) was −3.1 ± 3.7 and the “Pruritus Δ Mean ± SD” value (W12, All) was −3.0 ± 3.4. For the same compound, the “QLQ-C30 Functional Δ Mean ± SD” value (W12, All) was 8.7 ± 18.8, the “QLQ-C30 Global Health Δ Mean ± SD” value (W12, All) was 12.5 ± 24.7 and the “QLQ-C30 Symptom Δ Mean ± SD” value (W12, All) was −6.1 ± 13.6. The “Stools per day Δ Mean ± SD” value (W12, All) was −1.9 ± 3.6, the “AFIRMM Δ Mean ± SD” value [1] was −63.5 ± 52.9 and the “Flushes per day Δ Mean ± SD” value [1] was −2.0 ± 1.6. The “Hamilton rating Δ Mean ± SD” value [1] was −4.6 ± 4.3, the “Micturitions per day Δ Mean ± SD” value [1] was −3.0 ± 2.8 and the “Pruritus Δ Mean ± SD” value [1] was −3.5 ± 3.6. For the same compound, the “QLQ-C30 Functional Δ Mean ± SD” value [1] was 8.7 ± 21.0, the “QLQ-C30 Global Health Δ Mean ± SD” value [1] was 14.1 ± 27.0 and the “QLQ-C30 Symptom Δ Mean ± SD” value [1] was −5.4 ± 14.7. The “Stools per day Δ Mean ± SD” value [1] was −2.0 ± 4.0, the “AFIRMM Δ Mean ± SD” value [2] was −53.5 ± 38.5 and the “Flushes per day Δ Mean ± SD” value [2] was −0.8 ± 0.5. For the same compound, the “Hamilton rating Δ Mean ± SD” value [2] was −10.0, the “Micturitions per day Δ Mean ± SD” value [2] was −3.5 ± 7.8 and the “Pruritus Δ Mean ± SD” value [2] was −1.0 ± 2.2. The “QLQ-C30 Functional Δ Mean ± SD” value [2] was 8.6 ± 4.8, the “QLQ-C30 Global Health Δ Mean ± SD” value [2] was 6.3 ± 12.5 and the “QLQ-C30 Symptom Δ Mean ± SD” value [2] was −9.5 ± 6.2. The “Stools per day Δ Mean ± SD” value [2] was −1.5 ± 2.1, the overall clinical response (W12, ITT) was 14/25 and the “tryptase level, mean reduction” value (W12, PP patients with elevated tryptase (>15 ng/mL) at baseline (N=5)) was 23%. The micturition frequency improvement (W12, PP population) was 39%±14, the stool frequency improvement (W12, PP population) was 44%±63 and the “AFIRMM global score improvement” value (W12, evaluable patients (N=20)) was 40%±27. The micturition frequency improvement [3] was 23%±30, the stool frequency improvement [3] was 29%±58 and the “bone marrow mast cell infiltration” value (W12, one patient of 15 evaluable, 7% at baseline) was 1%. For the same compound, the “first response events: Cumulative Frequency” value (at 1.5 mg/kg/day) was 0%, the “first response events: Total events” value (at 1.5 mg/kg/day) was 0 and the “first response events: AFIRMM score” value (at 3.0 mg/kg/day) was 4. The “first response events: Cumulative Frequency” value (at 3.0 mg/kg/day) was 46%, the “first response events: Flush” value (at 3.0 mg/kg/day) was 9 and the “first response events: Hamilton” value (at 3.0 mg/kg/day) was 4. For the same compound, the “first response events: OPA score” value (at 3.0 mg/kg/day) was 2, the “first response events: Pruritus” value (at 3.0 mg/kg/day) was 5 and the “first response events: QLQ30 Functional” value (at 3.0 mg/kg/day) was 3. The “first response events: QLQ30 Global” value (at 3.0 mg/kg/day) was 2, the “first response events: QLQ30 Symptom” value (at 3.0 mg/kg/day) was 2 and the “first response events: Stool” value (at 3.0 mg/kg/day) was 5. The “first response events: Total events” value (at 3.0 mg/kg/day) was 36, the “first response events: AFIRMM score” value (at 4.5 mg/kg/day) was 1 and the “first response events: Cumulative Frequency” value (at 4.5 mg/kg/day) was 61%. The “first response events: Flush” value (at 4.5 mg/kg/day) was 3, the “first response events: Hamilton” value (at 4.5 mg/kg/day) was 2 and the “first response events: Pruritus” value (at 4.5 mg/kg/day) was 2. The “first response events: QLQ30 Functional” value (at 4.5 mg/kg/day) was 1, the “first response events: QLQ30 Global” value (at 4.5 mg/kg/day) was 2 and the “first response events: QLQ30 Symptom” value (at 4.5 mg/kg/day) was 1. The “first response events: Total events” value (at 4.5 mg/kg/day) was 12.
